Results on 9 compounds are retold here after ChEMBL document CHEMBL1201862, “PubChem BioAssay data set” (2004).

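The compound was tested at five concentrations on cells cultured in 96-well plates, with a 48-hour exposure period. GI50: concentration for 50% inhibition of growth.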 Activity calls are given as the source filed them. Cut-off read from the data, not from the text of the source: active = GI50 up to about 1.1 µM and inactive = higher.

Some test systems named below: U-251; HOP-92; HCT-15; SF-295; UACC-257; SK-MEL-5; CAKI-1; SF-539; UO-31; IGROV-1; SNB-19; SK-MEL-2; OVCAR-5; UACC-62; K562; NCI-H23; EKVX; RPMI-8226; OVCAR-8; COLO 205.
Holding throughout (test): NCI anticancer screen, dose series, 48 h

For the compound `Cc1ccc(C(=O)N/N=C(\N=N\c2cccc(C)c2)c2ccc(N(CCC#N)CCC#N)cc2C)cc1`, the GI50 in the assay on U-251 is 47 µM (inactive); in the assay on HOP-92 it was 34 µM (inactive); in the assay on HCT-15, more than 100 µM; with SF-295, > 100 µM (inactive); in the assay on UACC-257, 58.9 µM (inactive); in the assay on SK-MEL-5, 32.2 µM (inactive). For the same compound, the GI50 was > 100 µM (inactive) with CAKI-1; 64.7 µM (inactive) with SF-539; > 100 µM (inactive) in the assay on UO-31; 34.3 µM (inactive) in the assay with IGROV-1; > 100 µM (inactive) in the assay with SNB-19; 49.3 µM (inactive) in the assay on SK-MEL-2. The GI50 in the assay on OVCAR-5 was > 100 µM (inactive); in the assay on UACC-62 it was 57.1 µM (inactive); in the assay on K562 it was > 100 µM (inactive); in the assay with NCI-H23, > 100 µM (inactive); with EKVX it was 95.3 µM (inactive); in the assay with RPMI-8226, 49.9 µM (inactive). In addition, the GI50 with OVCAR-8 is 43.3 µM (inactive); in the assay on COLO 205, > 100 µM (inactive).
Take `CCOC(=O)C1=NN(c2ccccc2)C2=CC(C)=NN(C)C(=S)N21`: the GI50 in the assay on U-251 was > 100 µM (inactive); in the assay on HOP-92 it was > 100 µM (inactive); with HCT-15 it was more than 100 µM; with SF-295, > 100 µM (inactive); in the assay on UACC-257, > 100 µM (inactive); with SK-MEL-5, > 100 µM (inactive). The GI50 in the assay on CAKI-1, with SF-539, in the assay with UO-31, with IGROV-1, in the assay with SNB-19 and in the assay on SK-MEL-2 was > 100 µM (inactive) each time. Further, the GI50 with OVCAR-5, with UACC-62, with K562, with NCI-H23, with EKVX and in the assay on RPMI-8226 was > 100 µM (inactive) in each case. Besides, the GI50 in the assay with OVCAR-8 and in the assay with COLO 205 was > 100 µM (inactive) in each case.
Consider `Cc1nnc(N)s/c1=N/O`, for which the GI50 was > 100 µM (inactive) in the assay with U-251; > 100 µM (inactive) in the assay on HOP-92; more than 100 µM in the assay on HCT-15; > 100 µM (inactive) with SF-295; 56.9 µM (inactive) in the assay on UACC-257; 56.9 µM (inactive) with SK-MEL-5. The GI50 with CAKI-1, with SF-539, in the assay on UO-31, with IGROV-1, with SNB-19 and in the assay on SK-MEL-2 was > 100 µM (inactive) throughout. The GI50 in the assay with OVCAR-5, with UACC-62, in the assay on K562, in the assay on NCI-H23, in the assay on EKVX and in the assay with RPMI-8226 was > 100 µM (inactive) throughout. In addition, the GI50 in the assay with OVCAR-8 and with COLO 205 was > 100 µM (inactive) in each case.
Regarding `Cc1ccc(C(=O)Nc2ncn(C3CC(O)C(CO)O3)c(=O)n2)cc1` (stereo not given), the GI50 is > 100 µM (inactive) in the assay on U-251; > 100 µM (inactive) with HOP-92; more than 100 µM in the assay on HCT-15; > 100 µM (inactive) in the assay on SF-295; > 100 µM (inactive) with UACC-257; > 100 µM (inactive) with SK-MEL-5. Besides, the GI50 is > 100 µM (inactive) in the assay on CAKI-1; > 100 µM (inactive) in the assay with SF-539; > 100 µM (inactive) with UO-31; > 100 µM (inactive) with IGROV-1; 12.2 µM (inactive) with SNB-19; > 100 µM (inactive) in the assay with SK-MEL-2. In addition, the GI50 with OVCAR-5 was > 100 µM (inactive); with UACC-62, > 100 µM (inactive); in the assay with K562 it was > 100 µM (inactive); in the assay with NCI-H23, > 100 µM (inactive); with EKVX, > 100 µM (inactive); with RPMI-8226, > 45.9 µM (inactive). In addition, the GI50 in the assay with OVCAR-8 and in the assay on COLO 205 was > 100 µM (inactive) each time.
Turning to `CC(=O)OC1CC2(O)C(CCC3(C)C(c4ccc(=O)oc4)CCC32O)C2(C)CCC(O)C=C12` (stereo not given), the GI50 is 0.0169 µM (active) with U-251; 0.0604 µM (active) in the assay with HOP-92; 0.0239 µM in the assay on HCT-15; 0.00955 µM (active) in the assay on SF-295; 0.0242 µM (active) in the assay on UACC-257; 0.00439 µM (active) with SK-MEL-5. Also, the GI50 is 0.0375 µM (active) with CAKI-1; 0.00775 µM (active) in the assay with SF-539; 0.0297 µM (active) in the assay with UO-31; 0.0195 µM (active) in the assay on IGROV-1; 0.0466 µM (active) in the assay with SNB-19; 0.0177 µM (active) with SK-MEL-2. The GI50 is 0.104 µM (active) in the assay with OVCAR-5; 0.024 µM (active) with UACC-62; 0.0375 µM (active) in the assay on K562; 0.00246 µM (active) in the assay on NCI-H23; 0.0139 µM (active) in the assay with EKVX; 0.00993 µM (active) in the assay with RPMI-8226. Further, the values for the GI50 in the assay with OVCAR-8 and in the assay with COLO 205 were 0.0152 µM (active) and 0.0385 µM (active), respectively.
`CC1(C)CC2(CC(C)(C)N1O)NC(=O)OC2=O`: the GI50 is > 100 µM (inactive) with U-251; > 100 µM (inactive) with HOP-92; more than 100 µM in the assay with HCT-15; > 100 µM (inactive) with SF-295; > 100 µM (inactive) in the assay on UACC-257; > 100 µM (inactive) in the assay with SK-MEL-5. The GI50 with CAKI-1, in the assay with SF-539, in the assay on UO-31, in the assay on IGROV-1, in the assay on SNB-19 and in the assay with SK-MEL-2 was > 100 µM (inactive) in each case. The GI50 in the assay on OVCAR-5, in the assay on UACC-62, in the assay on K562, in the assay with NCI-H23, in the assay on EKVX and with RPMI-8226 was > 100 µM (inactive) throughout. For the same compound, the GI50 in the assay on OVCAR-8 and in the assay with COLO 205 was > 100 µM (inactive) throughout.
Regarding `CC[C@@]1(O)C[C@H](OC2CC(N(C)C)C(OC3CC(O)C(OC4CC(O)C(O)C(C)O4)C(C)O3)C(C)O2)c2c(cc3c(c2O)C(=O)c2c(O)ccc(O)c2C3=O)[C@H]1C(=O)OC` (stereo not given in full), the GI50 was 0.084 µM (active) in the assay on U-251; 0.0902 µM (active) in the assay on HOP-92; 0.151 µM with HCT-15; 0.0113 µM (active) in the assay on SF-295; 0.0255 µM (active) in the assay on UACC-257; 0.0194 µM (active) with SK-MEL-5. The GI50 with CAKI-1 is 0.0082 µM (active); in the assay on SF-539, < 0.0214 µM (active); in the assay on UO-31, 0.112 µM (active); with IGROV-1, < 0.023 µM (active); in the assay with SNB-19 it was 0.0346 µM (active); with SK-MEL-2 it was 0.0398 µM (active). In addition, the GI50 in the assay with OVCAR-5 is 0.254 µM (active); in the assay on UACC-62, 0.017 µM (active); in the assay on K562, 0.0109 µM (active); in the assay with NCI-H23, 0.0404 µM (active); with EKVX it was 0.0413 µM (active); with RPMI-8226, 0.011 µM (active). The GI50 was 0.00474 µM (active) in the assay on OVCAR-8 and 0.0131 µM (active) in the assay with COLO 205.
For the compound `CC(C(=O)OCc1ccccc1)N(Cc1ccccc1)Cc1ccccc1` (stereo not given), the GI50 in the assay with U-251 is 98.4 µM (inactive); in the assay with HOP-92 it was > 100 µM (inactive); in the assay with HCT-15, more than 100 µM; with SF-295 it was > 100 µM (inactive); in the assay with UACC-257 it was 33.7 µM (inactive); with SK-MEL-5 it was 43.1 µM (inactive). Also, the GI50 in the assay with CAKI-1 is > 100 µM (inactive); in the assay on SF-539, > 100 µM (inactive); in the assay with UO-31, 75.3 µM (inactive); in the assay on IGROV-1, > 100 µM (inactive); in the assay on SNB-19, > 100 µM (inactive); in the assay on SK-MEL-2, 29.6 µM (inactive). In addition, the GI50 is > 100 µM (inactive) in the assay on OVCAR-5; > 100 µM (inactive) with UACC-62; 77.8 µM (inactive) with K562; 45.2 µM (inactive) in the assay with NCI-H23; > 100 µM (inactive) in the assay on EKVX; 35.9 µM (inactive) in the assay with RPMI-8226. The GI50 in the assay with OVCAR-8 and in the assay on COLO 205 was > 100 µM (inactive) in each case.
In the case of `CC(=O)NNc1nc(C)c(C(=O)NNC(=O)C(=O)Nc2c(C)cccc2C(C)(C)C)s1`, the GI50 in the assay with U-251 is 58.7 µM (inactive); with HOP-92, > 100 µM (inactive); in the assay on HCT-15 it was 59.7 µM; in the assay with SF-295 it was > 100 µM (inactive); in the assay on UACC-257, > 100 µM (inactive); in the assay on SK-MEL-5 it was > 100 µM (inactive). In addition, the GI50 in the assay on CAKI-1 was 49.5 µM (inactive); with SF-539, > 100 µM (inactive); in the assay on UO-31, 47.8 µM (inactive); in the assay on IGROV-1, 93.3 µM (inactive); in the assay on SNB-19 it was > 100 µM (inactive); in the assay on SK-MEL-2 it was > 100 µM (inactive). Further, the GI50 in the assay with OVCAR-5 was > 100 µM (inactive); with UACC-62, 97.9 µM (inactive); with K562, 31.3 µM (inactive); with NCI-H23, > 100 µM (inactive); with EKVX, > 100 µM (inactive); in the assay on RPMI-8226 it was 45.9 µM (inactive). In addition, the GI50 in the assay on OVCAR-8 was > 100 µM (inactive); in the assay with COLO 205, 46.8 µM (inactive).
